The results in this text go back to patent publication US4620871A (priority 1980, dated 1986).

In one assay the test system is leaves of Pinto beans. In words: Stimulation of carbon dioxide fixation, Pinto beans (Example 21). The following applies: for Radioactivity A: A = in the light, control 2.14; for Radioactivity A / Radioactivity B / Radioactivity C / Stimulation: zeatin 20, kinetin/benzyladenine 30, others 200 ppm; for Radioactivity B: B = in the dark, control 0.18; for Radioactivity C: C = photosynthetic, control 2.32. The method, then: The tests were performed on leaves of Pinto beans. The leaf segments were treated with an endogeneous cytokinin (zeatin), synthetic cytokinins (kinetin, benzyladenine) or with the compositions according to the invention, respectively, by floating the leaf segments on the solution of the test substance for 18 hours, thereafter the leaf segments were exposed to labelled carbon dioxide (activity: 100 μCi/5000 ml of ^14 CO2) for 0.5 hours.

The next assay relates to Soybean. The assay can be described thus: Total and protein nitrogen content of soybean (Example 39). The assay is classed as in vivo. The following applies: for Protein nitrogen content: control 1.9; for Total nitrogen content: control 2.6; for Protein nitrogen content, increase / Total nitrogen content, increase: in vivo. An excerpt: The effects of 1,4-dihydroxyphthalazine and salts thereof exerted on the total nitrogen content and protein nitrogen content of soybean were examined as described in Example 27. The plants were sprayed with the compositions according to the invention at the beginning of the flowering of the apical cluster.

The next assay deals with Pinto beans. In words: Preservation of chlorophyll in Pinto beans (Example 17). The assay is classed as in vivo. To be noted: zeatin 20 ppm, kinetin/benzyladenine 30 ppm, others 200 ppm; for Extinction: 665 mμ, 200 mg fresh weight, 2 weeks. The method, then:
Endogeneous and synthetic cytokinins were applied as comparative substances. Solutions with varying concentrations, but always more dilute than 10^-4 moles, were applied in the tests.
The tests were performed on Pinto beans. The plants were treated with an endogenous cytokinin (zeatine), synthetic cytokinins (kinetin, benzyladenine) or cytokinin-like compounds, respectively, and the chlorophyll content of the leaves was determined 2 weeks after the treatment by measuring the extinction of the extract of the leaves at 665 mμ.

In assay [1] the test system is leaves of Pinto bean. In words: Protein synthesis, glycine-2-14C incorporation in Pinto bean leaves (Example 19). To be noted: 18 hours, zeatin 20 ppm, kinetin/benzyladenine 30 ppm, others 200 ppm; for Radioactivity of the TCA-insoluble fraction: control 3.17. How it is done:
The tests were performed on leaves of Pinto bean. The leaf segments were treated with an endogeneous cytokinin (zeatin), synthetic cytokinins (kinetin, benzyladenine) or with the compositions according to the invention, respectively, by floating the leaf segments on the solution of the test substance for 18 hours. Thereafter the leaf segments were exposed to a labelled amino acid (glycine-2-^14 C) for 3 hours, and the incorporation of the amino acid was determined by radiometry.

The subject of assay [2] is leaves of Pinto bean. The assay can be described thus: Stimulation of photolytic activity, HTO, Pinto bean (Example 23). To be noted: 18 hours, zeatin 20, kinetin/benzyladenine 30, others 200 ppm; for Photolytic activity: control 7.64. The method, then: The stimulating effects of an endogeneous cytokinin (zeatin), synthetic cytokinins (kinetin, benzyladenine) and the cytokinin-like regulators according to the invention exerted on the photolytic activity connected to the decomposition of HTO were examined on leaves of Pinto bean. The leaf discs were floated for 18 hours on solutions of the substances under examination, and then exposed to a radioactivity of 200 μCi/100 ml for one hour to effect photolysis of HTO.

Another assay deals with Pinto bean. In words: Stimulation of membrane activity (nitrate uptake), Pinto bean (Example 25). In kind it is in vivo. The following applies: zeatin 20, kinetin/benzyladenine 30, others 200 ppm; for Protein nitrogen / Total nitrogen: 2 weeks; for Protein nitrogen: control 2.4; for Total nitrogen: control 3.8; for Protein nitrogen content in % of the total nitrogen content: control 63. How it is done:
The tests were performed on Pinto bean. The plants were treated with solutions of an endogeneous cytokinin (zeatin), synthetic cytokinins and membraneactive regulators according to the invention, respectively, and the leaves of the plants were analyzed 2 weeks after the treatment.

In the next assay the test system is Pannonia vine variety. The assay can be described thus: Berry yield and sugar content of vine, Pannonia (Example 33). In kind it is in vivo. The following applies: for Berry yield: 3 x 2 kg/ha, control 216; for Sugar content: control 13.0; for Sugar yield: control 28.08. The method, then: (§1) Vine stands were sprayed with the compositions according to the invention to examine their effects exerted on the berry yield and sugar content. The compositions, diluted with water, were sprayed three times onto the plants. The first treatment was performed prior to flowering, the second one three weeks later, and the third one six weeks after the first one. The dose applied was 2 kg/ha in each of the treatments.
(§2) Comparative tests were also performed with commonly used growth regulating compositions, i.e. CCC (chlorocholine chloride), Ethrel (or Etefon; 2-chloroethylphosphonic acid) and Nevirol (N-phenyl-phthalaiminic acid). The results were compared to those observed with the untreated controls.
(§3) Two vine varieties, Pannonia and Egri leanyka, were involved in the tests.

The subject of assay [3] is Egri leanyka vine variety. In words: Berry yield and sugar content of vine, Egri leanyka (Example 33). In kind it is in vivo. The following applies: for Berry yield: 3 x 2 kg/ha, control 151.15; for Sugar content: control 16.7; for Sugar yield: control 18.93. How it is done: as §1, §2, §3
The subject of the next assay is Tobacco callus. The assay can be described thus: Growth of tobacco callus vs kinetin (Example 14). The assay is classed as cell-based. The following applies: 2 ppm active agent; for Dry weight of the callus / Speed of growth: kinetin 1 ppm; for activity at 2 ppm: Nicotiana tabacum, 504 h, kinetin 1 ppm = 100, read-out: Speed of growth, Index %. How it is done: An untreated culture medium served as control. Tobacco callus was grown on the treated and untreated culture media (incubation period: 3 weeks), and the daily growth, the increase in cell number and the frequency of mitosis were measured according to the method of Skoog.
The test described in Example 13 was repeated so that a culture medium containing 1 ppm of kinetin was used as control, and the compositions according to the invention were applied in amounts corresponding to 2 ppm of active agent.

The subject of assay [4] is callus isolated from Datura innoxia Mill. roots. In words: Growth of callus isolated from Datura innoxia Mill. roots (Example 15). In kind it is cell-based. The following applies: with kinetin (2 ppm).

As to `N=C(N)N.Oc1nnc(O)c2ccccc12` [1,4-Dihydroxy-phthalazine monoguanidine salt], in the assay with leaves of Pinto beans, the “Radioactivity A” value is 3.75 dpm/200 mg fresh weight, the “Radioactivity B” value amounted to 0.28 dpm/200 mg fresh weight, the “Radioactivity C” value was 3.47 dpm/200 mg fresh weight and the Stimulation worked out at 50.7%.
As to `NN.NN.Oc1nnc(O)c2ccccc12` [1,4-Dihydroxyphthalazine dihydrazine salt], in the assay on Soybean, the Protein nitrogen content is 3.6 % of dry substance; the Total nitrogen content is reported as 3.9 % of dry substance; the “Protein nitrogen content, increase” value worked out at 89.5%; the “Total nitrogen content, increase” value is listed as 50.0%.
Take `NN.Oc1nnc(O)c2ccccc12` [1,4-Dihydroxyphthalazine hydrazine salt]: in the assay on Soybean, the Protein nitrogen content is reported as 3.1 % of dry substance; the Total nitrogen content is 3.7 % of dry substance; the “Protein nitrogen content, increase” value is reported as 63.2%; the “Total nitrogen content, increase” value is on record as 42.4%.
In the case of `c1ccc(CNc2ncnc3[nH]cnc23)cc1` [Benzyladenine, benzyladenine], in the assay with Pinto beans, the Extinction came to 1.229 and the Promotion is 83.1%. In the assay on leaves of Pinto bean [1], the Stimulation worked out at 87.0% and the “Radioactivity of the TCA-insoluble fraction” value was 5.92 1000 dpm/200 mg fresh weight. In the assay on leaves of Pinto beans, the “Radioactivity A” value amounted to 4.87 dpm/200 mg fresh weight, the “Radioactivity B” value is listed as 0.41 dpm/200 mg fresh weight, the “Radioactivity C” value was 5.28 dpm/200 mg fresh weight and the Stimulation was 128.0%. Moreover, in the assay with leaves of Pinto bean [2], the Stimulation was 125% and the Photolytic activity is listed as 17.21 dpm/mg of glucose. In the assay with Pinto bean, the Protein nitrogen is listed as 2.8 % of dry weight; the Total nitrogen is reported as 3.8 % of dry weight; the “Protein nitrogen, stimulation” value is 16.6%; the “Protein nitrogen content in % of the total nitrogen content” value (“Protein nitrogen content in %” below) was 73%.
As for `C[N+](C)(C)CCCl.[Cl-]` [CCC, 2-chloroethyltrimethyl-ammonium chloride], in the assay on Pannonia vine variety, the “Sugar content, increase” value came out at 23.0%; the Berry yield came to 175 q/ha; the Sugar content is 16.0%; the Sugar yield is reported as 28.0 q/ha. In assay [3], this molecule registered a Berry yield of 144.61 q/ha, a Sugar content of 17.0% and a Sugar yield of 18.44 q/ha.
For `O=P(O)(O)CCCl` [Ethrel, 2-chloroethylphosphonic acid], in the assay on Pannonia vine variety, the “Sugar content, increase” value worked out at 7.5%; the Berry yield is given as 194 q/ha; the Sugar content is recorded as 14.0%; the Sugar yield is recorded as 27.2 q/ha. Also, in assay [3], the “Berry yield, increase” value was found to be 8.9%; the “Sugar yield, increase” value amounted to 2.3%; the Berry yield was determined as 164.61 q/ha; the Sugar content stood at 15.7%. Besides, the Sugar yield in [3] was determined as 19.38 q/ha.
On to `c1coc(CNc2ncnc3[nH]cnc23)c1` [Kinetin], for which, in the assay on Tobacco callus, the “Dry weight of the callus” value came out at 174.11 mg, the Speed of growth was 97.17 and the activity at 2 ppm was found to be 100%. In assay [4], the Dry substance worked out at 3.52%; the “Dry weight of the callus” value was found to be 175.06 mg; the “Fresh weight of the callus” value stood at 4.9694 g; the “Growth, dry weight” value was determined as 15.56. Also, in assay [4], the “Growth, fresh weight” value amounted to 15.56 and the Speed of growth was determined as 98.28 mg/day. Also, in the assay with Pinto beans, the Extinction amounted to 1.120 and the Promotion amounted to 66.0%. Further, in the assay with leaves of Pinto bean [1], the Stimulation was 69.4% and the “Radioactivity of the TCA-insoluble fraction” value is on record as 5.36 1000 dpm/200 mg fresh weight. Moreover, in the assay with leaves of Pinto beans, the “Radioactivity A” value was found to be 4.15 dpm/200 mg fresh weight, the “Radioactivity B” value was found to be 0.37 dpm/200 mg fresh weight, the “Radioactivity C” value was 4.52 dpm/200 mg fresh weight and the Stimulation is 95.2%. Besides, in the assay on leaves of Pinto bean [2], the Stimulation is on record as 82% and the Photolytic activity was 13.96 dpm/mg of glucose. Further, in the assay with Pinto bean, the Protein nitrogen is on record as 2.8 % of dry weight; the Total nitrogen is 3.8 % of dry weight; the “Protein nitrogen, stimulation” value is 16.6%; the “Protein nitrogen content in %” value is 73%.
In the case of `CCCn1cnc2ccccc21` [N--(n-Propyl)-benzimidazolium chloride], in the assay with Tobacco callus, the “Dry weight of the callus” value was 194.09 mg, the Speed of growth worked out at 116.89 and the activity at 2 ppm came out at 119%.
With `O=C(O)c1ccccc1C(=O)Nc1ccccc1` [Nevirol, N-phenyl-phthalaiminic acid], in the assay on Pannonia vine variety, the “Sugar content, increase” value worked out at 18.4%; the “Sugar yield, increase” value stood at 30%; the Berry yield stood at 238 q/ha; the Sugar content amounted to 15.4%. This molecule registered a Sugar yield in the assay on Pannonia vine variety of 36.52 q/ha. Besides, in assay [3], the “Berry yield, increase” value is listed as 11.9%; the “Sugar yield, increase” value is given as 9.9%; the Berry yield amounted to 169.22 q/ha; the Sugar content is given as 16.4%. In addition, the Sugar yield in assay [3] is listed as 20.81 q/ha.
In the assay on Pinto beans, `C/C(=C\CNc1ncnc2[nH]cnc12)CO` [Zeatin] had an Extinction of 1.283 and a Promotion of 91.3%. For the same molecule, the “Radioactivity of the TCA-insoluble fraction” value with leaves of Pinto bean [1] is recorded as 6.18 1000 dpm/200 mg fresh weight. Moreover, in the assay on leaves of Pinto bean [1] (read-out: Stimulation), the activation at 20 ppm turned out to be 95.1%. Besides, in the assay with leaves of Pinto beans, the “stimulation of CO2 fixation, comparison in words” value is “the most potent stimulating agent”; the “Radioactivity A” value is on record as 5.12 dpm/200 mg fresh weight; the “Radioactivity B” value stood at 0.46 dpm/200 mg fresh weight; the “Radioactivity C” value came to 5.58 dpm/200 mg fresh weight. Further, the Stimulation in the assay with leaves of Pinto beans is recorded as 140.8%. Also, in the assay with leaves of Pinto bean [2], the Stimulation is recorded as 108% and the Photolytic activity is given as 15.94 dpm/mg of glucose. In the assay with Pinto bean, the Protein nitrogen is listed as 2.8 % of dry weight; the Total nitrogen is 3.8 % of dry weight; the “Protein nitrogen, stimulation” value was found to be 16.6%; the “Protein nitrogen content in %” value turned out to be 73%.
